This is an account of results in patent US11166944B2 (AI Therapeutics, priority 2014, dated 2021).

The subject of data set [1] is renal clear cell carcinoma cell line RCC-JF. In words: Antiproliferative single treatment study (CellTiterGlo, 120 h). Type of data set: cell-based. As to conditions: read-out: IC50 (Avg., n=2). How it is done:
(§1) All drug dilutions were made up as a 2× stock and 50 μL added to appropriate wells. Cells were treated for 120 h before viability was assessed using CellTiterGlo® (Promega) where the relative luminescence of untreated cells was set to 100% viability and each drug concentration expressed as a percentage of untreated cells. EC50 values were determined using GraphPad Prism (GraphPad Software, Inc). Briefly, raw data was log transformed and then analyzed using nonlinear regression (curve fit) where the data were constrained (bottom=0, top=100).

Data set [2] deals with renal clear cell carcinoma cell line A704. Described as above. It counts as cell-based. As to conditions: Homo sapiens, A704, 120 h, read-out: IC50 (Avg., n=2). The protocol: as §1
Data set [3] deals with renal clear cell carcinoma cell line 769-P. Described as above. As to conditions: Homo sapiens, read-out: IC50 (Avg., n=2). It counts as cell-based. The protocol:
as §1

Data set [4] has as its system renal clear cell carcinoma cell line RCC-JW. The data set is described as above. Type of data set: cell-based. As to conditions: read-out: IC50 (Avg., n=2). How it is done:
as §1

The test system of data set [5] is renal clear cell carcinoma cell line 786-O. The data set is described as above. As to conditions: Homo sapiens, 786-0, read-out: IC50 (Avg., n=2). It counts as cell-based. How it is done: as §1
Data set [6] relates to renal clear cell carcinoma cell line RCC-ER. Described as above. It counts as cell-based. As to conditions: read-out: IC50 (Avg., n=2). The protocol: as §1
Data set [7] concerns renal clear cell carcinoma cell line RCC-FG2. The description is as above. Type of data set: cell-based. As to conditions: read-out: IC50 (Avg., n=2); RCC-FG2, 120 h. How it is done:
as §1

The test system of data set [8] is renal clear cell carcinoma cell line RCC-MF. The data set is described as above. It counts as cell-based. As to conditions: read-out: IC50 (Avg., n=2). The protocol: as §1
The test system of another data set is Jurkat. As to conditions: cited from earlier work.
For data set [9], the system named is patients with rheumatoid arthritis. As to conditions: Phase II; cited from earlier work.
For another data set, the system named is HELA. As to conditions: cited from earlier work.
In the next data set the target is T1, Vac14 (Homo sapiens, UniProt Q08AM6).
T1 construct: endogenous in cells; host or cells: H4 human neuroglioma cells (whole cell lysate)
T1 sequence (Q08AM6 whole entry): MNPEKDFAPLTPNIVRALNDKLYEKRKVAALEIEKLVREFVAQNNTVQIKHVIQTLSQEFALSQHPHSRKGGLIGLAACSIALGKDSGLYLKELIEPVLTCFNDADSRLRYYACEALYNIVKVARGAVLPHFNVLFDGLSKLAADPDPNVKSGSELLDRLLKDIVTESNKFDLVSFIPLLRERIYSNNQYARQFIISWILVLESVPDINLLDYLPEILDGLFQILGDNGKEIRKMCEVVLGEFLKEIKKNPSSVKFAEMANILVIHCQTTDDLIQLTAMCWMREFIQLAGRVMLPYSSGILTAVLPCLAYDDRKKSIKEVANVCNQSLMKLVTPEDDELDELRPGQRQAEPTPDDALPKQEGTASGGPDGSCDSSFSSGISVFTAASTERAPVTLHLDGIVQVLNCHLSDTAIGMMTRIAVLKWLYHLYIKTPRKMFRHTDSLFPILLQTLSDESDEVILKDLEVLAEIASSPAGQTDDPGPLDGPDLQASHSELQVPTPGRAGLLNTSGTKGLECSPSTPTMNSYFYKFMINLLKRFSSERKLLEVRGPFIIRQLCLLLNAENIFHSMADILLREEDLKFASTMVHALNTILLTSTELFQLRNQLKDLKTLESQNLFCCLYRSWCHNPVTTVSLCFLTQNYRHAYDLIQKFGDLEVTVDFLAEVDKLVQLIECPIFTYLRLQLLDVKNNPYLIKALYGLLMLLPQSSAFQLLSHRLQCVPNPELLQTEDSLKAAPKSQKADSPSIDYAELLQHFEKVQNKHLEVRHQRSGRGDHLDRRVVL
T1 sequence (Q9Y2I7 2-2098 partner): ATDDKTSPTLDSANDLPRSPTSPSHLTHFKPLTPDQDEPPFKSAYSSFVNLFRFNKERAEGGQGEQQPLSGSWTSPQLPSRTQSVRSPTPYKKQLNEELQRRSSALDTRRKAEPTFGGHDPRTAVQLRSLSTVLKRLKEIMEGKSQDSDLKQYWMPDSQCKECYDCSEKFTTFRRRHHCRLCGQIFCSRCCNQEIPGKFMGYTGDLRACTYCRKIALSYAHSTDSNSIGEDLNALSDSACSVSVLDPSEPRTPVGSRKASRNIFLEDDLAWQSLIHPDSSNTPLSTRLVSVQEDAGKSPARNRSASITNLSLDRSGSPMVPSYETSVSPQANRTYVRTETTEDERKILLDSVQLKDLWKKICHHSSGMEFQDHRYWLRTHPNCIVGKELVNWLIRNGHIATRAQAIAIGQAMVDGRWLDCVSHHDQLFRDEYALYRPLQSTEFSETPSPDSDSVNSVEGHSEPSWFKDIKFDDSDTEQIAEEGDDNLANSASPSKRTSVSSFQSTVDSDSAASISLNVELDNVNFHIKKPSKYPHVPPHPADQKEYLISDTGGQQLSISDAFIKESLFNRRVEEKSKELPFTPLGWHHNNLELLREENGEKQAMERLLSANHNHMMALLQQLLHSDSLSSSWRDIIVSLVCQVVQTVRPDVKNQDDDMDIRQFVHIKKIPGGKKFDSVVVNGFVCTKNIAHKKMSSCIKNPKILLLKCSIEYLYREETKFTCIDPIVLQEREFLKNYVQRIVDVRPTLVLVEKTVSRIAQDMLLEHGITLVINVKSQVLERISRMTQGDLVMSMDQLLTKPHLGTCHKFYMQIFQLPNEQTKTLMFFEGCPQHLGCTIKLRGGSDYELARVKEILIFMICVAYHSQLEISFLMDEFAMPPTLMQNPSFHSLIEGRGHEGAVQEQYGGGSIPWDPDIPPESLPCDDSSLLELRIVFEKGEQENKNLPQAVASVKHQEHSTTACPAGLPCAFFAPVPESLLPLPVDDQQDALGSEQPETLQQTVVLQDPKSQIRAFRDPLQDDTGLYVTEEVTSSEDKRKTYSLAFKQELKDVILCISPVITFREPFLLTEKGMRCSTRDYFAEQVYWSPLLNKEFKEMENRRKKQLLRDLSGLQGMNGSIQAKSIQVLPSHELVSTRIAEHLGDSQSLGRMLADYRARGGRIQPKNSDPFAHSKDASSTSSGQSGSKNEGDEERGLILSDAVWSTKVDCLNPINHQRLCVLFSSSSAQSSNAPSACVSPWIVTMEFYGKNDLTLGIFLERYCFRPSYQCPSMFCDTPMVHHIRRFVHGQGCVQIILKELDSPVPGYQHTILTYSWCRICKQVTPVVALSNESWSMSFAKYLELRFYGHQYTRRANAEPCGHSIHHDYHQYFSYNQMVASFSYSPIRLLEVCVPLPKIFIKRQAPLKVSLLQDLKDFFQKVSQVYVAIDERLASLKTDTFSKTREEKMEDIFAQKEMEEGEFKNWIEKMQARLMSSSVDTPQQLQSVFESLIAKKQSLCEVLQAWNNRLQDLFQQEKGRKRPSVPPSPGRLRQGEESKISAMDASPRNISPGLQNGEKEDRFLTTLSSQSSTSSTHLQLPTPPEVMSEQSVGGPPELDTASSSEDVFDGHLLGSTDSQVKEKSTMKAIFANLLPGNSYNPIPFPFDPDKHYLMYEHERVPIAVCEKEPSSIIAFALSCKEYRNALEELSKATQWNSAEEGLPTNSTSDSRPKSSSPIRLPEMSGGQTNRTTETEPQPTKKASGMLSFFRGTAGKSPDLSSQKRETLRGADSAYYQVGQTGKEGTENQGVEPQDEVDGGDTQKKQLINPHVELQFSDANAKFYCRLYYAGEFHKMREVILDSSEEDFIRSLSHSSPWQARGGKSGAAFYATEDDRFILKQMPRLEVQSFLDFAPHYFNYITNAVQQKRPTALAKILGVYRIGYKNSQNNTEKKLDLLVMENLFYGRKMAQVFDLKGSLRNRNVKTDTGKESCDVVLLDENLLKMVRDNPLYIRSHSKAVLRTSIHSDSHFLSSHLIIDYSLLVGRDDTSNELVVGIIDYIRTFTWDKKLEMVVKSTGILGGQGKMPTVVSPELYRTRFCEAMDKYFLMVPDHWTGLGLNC
Put plainly: Chemical capture mass spectrometry (CCMS) in H4 whole cell lysate. As to conditions: apilimod as competitor ligand. Type of data set: binding. How it is done: This work was performed at Caprotec Bioanalytics GmbH, Berlin Germany. See Michaelis et al., J. Med. Chem., 55 3934-44 (2012) and references cited therein.
Capture conditions were optimized in whole cell lysate from H4 (human neuroglioma) cancer cells, e.g. minimization of non-specific interactions of the proteins with capture compounds, concentration of reagents and proteins to obtain maximum binding of proteins and capture compounds, etc. […] These specific binders were further subjected to stringent data analysis criteria to determine specificity after unbiased data evaluation. Specific protein binders were ranked according to their fold change (FC) values in the capture experiments.

Data set [10] concerns peripheral blood mononuclear cells. As to conditions: cited from earlier work.
In another data set the test system is H4 neuroglioma cell line. In words: Autophagic vacuoles (Cyto-ID Autophagy detection kit). Type of data set: cell-based, human. As to conditions: H4 cells, 72 hours of treatment. An excerpt: (§2) Autophagy was quantified using the Cyto-ID Autophagy detection kit (Enzo) according to manufacturer's directions.
Another data set deals with H4. In words: Cell viability dose response. As to conditions: Homo sapiens, H4, Human neuroglioma. Type of data set: cell-based.
From the text: (§3) 35 cell lines were identified as sensitive to apilimod-induced cytotoxicity.
as §2
No statistically significant relationship was found with the sole exception of IL-23A (p=0.022). […] Importantly, the statistical significance of IL-23A expression in sensitive cancer lines appears to be driven entirely by just two colon cancer lines. Furthermore IL-23A expression is not a statistically significant predictor of sensitivity in Non-Hodgkin's B cell lymphoma.

The next data set relates to THP-1. As to conditions: cited from earlier work.
In a further data set the test system is normal lung fibroblasts. In words: Cytotoxicity in normal cells. It counts as cell-based. As to conditions: concentrations as high as 10 micromolar.
From the text: as §3

The next data set has as its system U937. As to conditions: cited from earlier work.
For data set [11], the system named is (TSC2−/−, p53−/−) MEF line. Put plainly: 10-point dose response viability (CellTiter-Glo, 72 hours). As to conditions: Mus musculus, average of two experiments. It counts as cell-based. From the text: (§4) See e.g., Zhang et al. J. Clin. Invest. 112, 1223-33, 2003. (2) ELT3-EV and ELT3-TSC2 lines were established from the ELT3 rat tumor cell line. The ELT3 line is an established rat tumor model for LAM/TSC. See e.g., Howe et al., Am. J. Path. 146, 1568-79, 1995. These cells harbor an inactivating mutation in TSC2, which leads to constitutive activation of the mTOR pathway. To develop an isogenic pair of cells ELT3 cells were infected with a retrovirus vector encoding the hygromycin antibiotic resistance gene (ELT3-EV) or the same retrovirus vector also encoding TSC2 (ELT3-TSC2). The ELT3-EV and ELT3-TSC2 line were then established by hygromycin selection. (3) TRI-AML102 and AML103 lines were established from a TSC2 null primary human AML sample provided by Dr. Elizabeth Henske (Fox Chase Cancer Center, Philadelphia, Pa.). The cells were infected with amphotropic retrovirus LXSN16E6E7 that encodes the HPV16 E6 and E7 open reading frames and neomycin resistance cassette. Cells were expanded and neomycin-selected. Individual clones were isolated and frozen down. The coding sequence for the human Telomerase gene (hTERT) with hygromycin resistance cassette (pLXSN hTERT-hyg plasmid) was stably expressed into a TSC2^−/− confirmed E6E7 AML clone using Fugene6 transfection reagent (Roche Applied Science, Indianapolis, Ind.). TRI-AML102 was generated by stable incorporation of a control zeomycin selection plasmid (pcDNA3.1-zeo), while TRI-AML103 expresses the human TSC2 cDNA pcDNA3.1-zeo plasmid. As a result of these engineering processes, both TRI102 and TRI103 are neomycin, hygromycin, and zeomycin resistant lines.
(§5) IC50 values were then calculated from the dose response curves using XLFIT (IDBS).

For data set [12], the system named is (TSC2+/−, p53−/−) MEF line. Described as above. Type of data set: cell-based. As to conditions: Mus musculus; MEF TSC2+/− p53−/− as counterpart of TSC2−/− p53−/−; average of two experiments; read-out: IC50 TSC2 rescue (viability).
From the text: as §4, §5

In data set [13] the test system is TRI-AML103 (TSC2 rescue AML) cells. Described as above. It counts as cell-based. As to conditions: Homo sapiens; AML column, rescue line; average of two experiments.
From the text: as §4, §5

Another data set concerns MEF-EV (TSC2−/−) cells. The description is as above. As to conditions: Mus musculus, average of two experiments. It counts as cell-based.
From the text: as §4, §5

For data set [14], the system named is MEF-TSC2 (TSC2 rescue) cells. Described as above. Type of data set: cell-based. As to conditions: Mus musculus; MEF TSC2 rescue line; average of two experiments.
From the text: as §4, §5

Data set [15] deals with TRI-AML102 (TSC2 null AML) cells. Described as above. As to conditions: Homo sapiens; AML column; average of two experiments. Type of data set: cell-based.
From the text: as §4, §5

Another data set has as its system ELT3-TSC2 cells. Described as above. As to conditions: Rattus norvegicus; ELT3 rescue line; average of two experiments. It counts as cell-based.
From the text: as §4, §5

Another data set deals with ELT3-EV cells. Described as above. As to conditions: Rattus norvegicus, average of two experiments, read-out: IC50 TSC2−/− (viability). It counts as cell-based.
From the text: as §4, §5

Turning to `Cc1cccc(/C=N/Nc2cc(N3CCOCC3)nc(OCCc3ccccn3)n2)c1` [LAM-002], the IC50 in [1] is 60 nM; in [2] it was 11 nM; in [3], 44 nM; in [4] it was 27 nM; in [5] it was 71 nM; in data set [6], 9 nM. The results for the IC50 in [7] and in data set [8] were 32 nM and 8 nM, respectively.

On to `Cc1cccc(/C=N/Nc2cc(N3CCOCC3)nc(OCCc3ccccn3)n2)c1` [apilimod], for which the cytotoxicity result (in the data set on Jurkat; in the data set on HELA; in [10]; in the data set with THP-1; with U937) was “not cytotoxic” each time. Besides, in data set [9], the “synovial IL-12 and IL-23 expression” value is “failed to alter synovial IL-12 and IL-23 expression”. Moreover, the “log (FC)” value at Vac14 (capture compound 0.1 μM) is on record as 6.2; on Vac14 (capture compound 0.5 μM), 5.6; on Vac14 (capture compound 1.0 μM) it was “Inf”; at Vac14 (capture compound 2.0 μM), 3.9. The “autophagy (autophagic vacuoles)” value in the data set with H4 neuroglioma cell line was “induces autophagy in a dose-dependent manner”. Moreover, the IC50 was 250 to 300 nM with H4; 28.8 nM in data set [11]; 70.7 nM in data set [12]; 132 nM in data set [13]; 19.7 nM in the data set with MEF-EV (TSC2−/−) cells; 20.1 nM in [14]. In addition, the results for the IC50 (in data set [15]; in the data set with ELT3-TSC2 cells; with ELT3-EV cells) were 117 nM, 16.1 nM and 13.7 nM, respectively. The “sensitivity to apilimod-induced cytotoxicity” value in the data set with normal lung fibroblasts is “not sensitive”.
